Source: US10894807B2 (Siemens Medical Solutions USA, Inc., priority 2011, dated 2021)
Where a SMILES comes first, the peptide text is derived from it. [ ]: non-standard residue; d: D form. The star is where a group is joined. Boc = CC(C)(C)OC(=O)*; Nlys = NCCCCNCC(=O)O

Each compound was assayed against human PSMA (Homo sapiens (Human), UniProt Q04609) (assay: Enzymatic assay for in vitro evaluation of PSMA inhibitors (fluorescent assay of PSMA activity, NAAG substrate, OPA detection of glutamate)). Conditions: not given.
Chain of human PSMA (Q04609 whole entry): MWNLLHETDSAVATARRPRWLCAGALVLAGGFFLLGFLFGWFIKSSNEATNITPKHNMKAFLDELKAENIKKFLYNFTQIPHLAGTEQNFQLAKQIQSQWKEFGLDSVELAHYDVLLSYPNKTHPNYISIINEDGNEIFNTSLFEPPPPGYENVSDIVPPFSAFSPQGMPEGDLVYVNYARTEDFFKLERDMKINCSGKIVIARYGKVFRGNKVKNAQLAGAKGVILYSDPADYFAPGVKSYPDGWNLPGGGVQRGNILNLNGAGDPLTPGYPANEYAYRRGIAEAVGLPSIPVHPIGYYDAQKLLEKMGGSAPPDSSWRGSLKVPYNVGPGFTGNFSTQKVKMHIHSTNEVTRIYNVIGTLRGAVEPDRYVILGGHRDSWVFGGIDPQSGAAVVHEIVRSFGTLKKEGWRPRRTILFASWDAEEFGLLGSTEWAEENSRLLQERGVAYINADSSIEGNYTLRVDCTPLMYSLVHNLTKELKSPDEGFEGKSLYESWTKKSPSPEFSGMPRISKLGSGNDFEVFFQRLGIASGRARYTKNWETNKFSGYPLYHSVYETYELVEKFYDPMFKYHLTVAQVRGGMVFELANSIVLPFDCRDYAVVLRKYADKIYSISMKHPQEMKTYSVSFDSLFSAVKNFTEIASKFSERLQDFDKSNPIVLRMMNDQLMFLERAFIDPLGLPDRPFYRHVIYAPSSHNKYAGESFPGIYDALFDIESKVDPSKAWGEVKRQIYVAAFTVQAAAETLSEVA
Format: biochemical
Method: Enzymatic Assay for In Vitro Evaluation of PSMA Inhibitors
The inhibitory activity of all compounds was determined using a fluorescent assay of human PSMA activity. The enzyme used in the assay was purchased from R&D Systems and stored at −80° C. The PSMA activity was assayed in a two-step process. In the first step, aliquots of enzyme (0.2 μg/mL) were incubated for 1 h at 37° C. in 50 mM HEPES, 0.1 M NaCl, pH 7.5, in the presence of 20 μM NAAG and the given inhibitor, in a volume of 250 μL, to allow for the accumulation of glutamate produced in the PSMA reaction. In the second step, the amount of accumulated glutamate was measured using the OPA reaction, and the fluorescence was read with a SpectraMax fluorescent plate reader using excitation at 330 nm and emission at 450 nm. The final Ki values for each inhibitor were calculated from the respective IC50 values using the Cheng and Prusoff equation.

Ki [nM]	SMILES
15.6	CN(C(=O)N[C@@H](CCC(=O)O)C(=O)O)[C@@H](CCCCNC(=O)OCc1ccccc1)C(=O)O [P018, (9S,13S)-10-Methyl-3,11-dioxo-1-phenyl-2-oxa-4,10,12-triazapentadecane-9,13,15-tricarboxylic Acid]
37.5	CN(C(=O)N[C@@H](CCCCNC(=O)OCc1ccccc1)C(=O)O)[C@@H](CCC(=O)O)C(=O)O [P019, (9S,13S)-12-Methyl-3,11-dioxo-1-phenyl-2-oxa-4,10,12-triazapentadecane-9,13,15-tricarboxylic Acid]
0.78	O=C(O)CC[C@H](NC(=O)N[C@@H](CCCCNC(=O)OCc1ccccc1)C(=O)O)C(=O)O [P033, (9S,13S)-3,11-Dioxo-1-phenyl-2-oxa-4,10,12-triazapentadecane-9,13,15-tricarboxylic Acid]

Same assay, conditions: compound at 10 μM

SMILES	PSMA Blkg % (10 μM) [%]
Cc1ccc(-c2cn(CC(=O)N[C@@H](CC(=O)N[C@@H](CCC(=O)O)C(=O)O)C(=O)O)nn2)cc1 [P016, (S)-2-((S)-3-Carboxy-3-(2-(4-(p-tolyl)-1H-1,2,3-triazol-1-yl)acetamido)-propanamido)pentanedioic Acid]	12
O=C(O)CCN(CC(=O)O)NC(=O)NC(CSCc1ccccc1)C(=O)O (stereo not shown) [P017, 3-(Benzylthio)-2-(2-(2-carboxyethyl)-2-(carboxymethyl)-hydrazinecarboxamido)propanoic Acid]	0
O=C(O)CC[C@H](NC(=O)N(CC(=O)O)NC(=O)OCc1ccccc1)C(=O)O [P021, (S)-2-(2-(Benzyloxycarbonyl)-1-(carboxymethyl)hydrazinecarboxamido) pentanedioic Acid]	0
C[C@@H](C(=O)O)N(C)C(=O)N[C@@H](CCC(=O)O)C(=O)O [P024, (S)-2-(3-((S)-1-carboxyethyl)-3-methylureido)pentanedioic Acid]	6
O=C(O)CN(CC(=O)O)CC(=O)N[C@H](CSCc1ccccc1)C(=O)O [P028, (S)-2,2′-((2-((2-(Benzylthio)-1-carboxyethyl)amino)-2-oxoethyl)azanediyl)diacetic Acid]	24
CN(C(=O)CCCC(=O)O)[C@@H](CCC(=O)O)C(=O)O [P029, (S)-2-(4-Carboxy-N-methylbutanamido)pentanedioic Acid]	12
C[C@H](NC(=O)CCCN=[N+]=[N-])C(=O)N[C@@H](CCC(=O)O)C(=O)O [P031, (S)-2-((S)-2-(4-Azidobutanamido)propanamido)pentanedioic Acid]	19
COc1ccc(-c2cn(CC(=O)NCCCC[C@@H](C(=O)O)N(C)C(=O)N[C@@H](CCC(=O)O)C(=O)O)nn2)cc1 [P036, (S)-2-(3-((S)-1-Carboxy-5-(2-(4-(4-methoxyphenyl)-1H-1,2,3-triazol-1-yl)acetamido)-pentyl)3-methylureido)pentanedioic Acid]	68
O=C(O)CC[C@H](Nc1nc(C(=O)O)co1)C(=O)O [P037, (S)-2-((4-Carboxyoxazol-2-yl)amino)pentanedioic Acid]	12
O=C(O)CC[C@H](NC(=O)N(O)CCCc1ccccc1)C(=O)O [P038, (S)-2-(3-Hydroxy-3-(3-phenylpropyl)ureido)pentanedioic Acid]	2
CC(=O)N(CCCCNC(=O)OC(C)(C)C)CC(=O)N[C@@H](CCC(=O)O)C(=O)O [P040, (S)-2-(2-(N-(4-(tert-Butoxycarbonylamino)butyl)acetamido)acetamido)pentanedioic Acid] (Ac-[Nlys](Boc)-Glu-OH)	42
CC(C)(C)OC(=O)NCCCCN(CC(=O)N[C@@H](CCC(=O)O)C(=O)O)C(=O)NO [P042, (S)-2-(2-(1-(4-(tert-Butoxycarbonylamino)butyl)-3-hydroxyureido)acetamido) pentanedioic Acid]	0
CN(C(=O)N[C@@H](CCC(=O)O)C(=O)O)[C@@H](CCCCNC(=O)Cn1cc(Cn2ccnc2[N+](=O)[O-])nn1)C(=O)O [P044, (S)-2-(3-((S)-1-Carboxy-5-(2-(4-2((2-nitro-1H-imidazo-1-yl)methyl)-1H-1,2,3-triazol-1-yl)acetamido)pentyl)-3-methylureido)pentanedioic Acid]	62

More lines, now with the values ahead:

PSMA Blkg % (10 μM) [%]	SMILES
99	CN(C(=O)N[C@@H](CCC(=O)O)C(=O)O)[C@@H](CCCCNC(=O)OCc1ccccc1)C(=O)O [P018, (9S,13S)-10-Methyl-3,11-dioxo-1-phenyl-2-oxa-4,10,12-triazapentadecane-9,13,15-tricarboxylic Acid]
97	CN(C(=O)N[C@@H](CCCCNC(=O)OCc1ccccc1)C(=O)O)[C@@H](CCC(=O)O)C(=O)O [P019, (9S,13S)-12-Methyl-3,11-dioxo-1-phenyl-2-oxa-4,10,12-triazapentadecane-9,13,15-tricarboxylic Acid]
0	O=C(O)CC[C@H](NC(=O)C[C@H](NC(=O)Cn1cc(CCCF)nn1)C(=O)O)C(=O)O [P020, (S)-2-((S)-3-Carboxy-3-(2-(4-(3-fluoropropyl)-1H-1,2,3-triazol-1-yl)acetamido)-propanamido)pentanedioic Acid]
77	O=C(O)CC[C@H](NC(=O)NCC(=O)O)C(=O)O [P022, (S)-2-(3-(Carboxymethyl)ureido)pentanedioic Acid]
24	[N-]=[N+]=NCCCC(=O)N[C@@H](CC(=O)N[C@@H](CCC(=O)O)C(=O)O)C(=O)O [P023, (S)-2-((S)-3-(4-Azidobutanamido)-3-carboxypropanamido)pentanedioic Acid]
92	C[C@H](NC(=O)N[C@@H](CCC(=O)O)C(=O)O)C(=O)O [P025, (S)-2-(3-((S)-1-Carboxyethyl)ureido)pentanedioic Acid]
2	O=C(O)CCNC(=O)N[C@@H](CCC(=O)O)C(=O)O [P026, (S)-2-(3-(2-Carboxyethyl)ureido)pentanedioic Acid]
31	O=C(O)CC[C@H](NC(=O)OCC(=O)O)C(=O)O [P027, (S)-2-(((Carboxymethoxy)carbonyl)amino)pentanedioic Acid]
2	O=C(O)CCCC(=O)NC(CCC(=O)O)C(=O)O (stereo not shown) [P030, S)-2-(4-Carboxybutanamido)pentanedioic Acid]
50	CN(C(=O)N[C@@H](CCC(=O)O)C(=O)O)[C@@H](CCCCNC(=O)Cn1cc(CCCF)nn1)C(=O)O [P032, (S)-2-(3-((S)-1-Carboxy-5-(2-(4-(3-fluoropropyl)-1H-1,2,3-triazol-1-yl)acetamido)pentyl)-3-methylureido)pentanedioic Acid]
89	O=C(O)CC[C@H](NC(=O)N[C@@H](CCCCNC(=O)OCc1ccccc1)C(=O)O)C(=O)O [P033, (9S,13S)-3,11-Dioxo-1-phenyl-2-oxa-4,10,12-triazapentadecane-9,13,15-tricarboxylic Acid]
70	CN(C(=O)N[C@@H](CCC(=O)O)C(=O)O)[C@@H](CCCCNC(=O)CN=[N+]=[N-])C(=O)O [P034, (S)-2-(3-((S)-5-(2-Azidoacetamido)-1-carboxypentyl)-3-methylureido)pentanedioic Acid]
0	CCN(C(=O)N[C@@H](CCC(=O)O)C(=O)O)[C@@H](CCCCNC(=O)OCc1ccccc1)C(=O)O [P035, (9S, 13S)-10-Ethyl-3,11-dioxo-1-phenyl-2-oxa-4,10,12-triazapentadecane-9,13,15-tricarboxylic Acid]
77	CC(C)(C)OC(=O)NCCCC[C@H](NC(=O)N[C@@H](CCC(=O)O)C(=O)O)C(=O)O [P039, (10S,14S)-2,2-Dimethyl-4,12-dioxo-3-oxa-5,11,13-triazahexadecane-10,14,16-tricarboxylic Acid]
77	O=C(O)CC[C@H](NC(=O)N[C@@H](CCCCNC(=O)Cn1cc(Cn2ccnc2[N+](=O)[O-])nn1)C(=O)O)C(=O)O [P043, (S)-2-(3-((S)-1-Carboxy-5-(2-(4-2((2-nitro-1H-imidazo-1-yl)-methyl)-1H-1,2,3-triazol-1-yl)acetamido)pentyl)ureido)pentanedioic Acid]
